The subject of data set [1] is E. coli. The data set is described as follows: Growth of E. coli in media containing various concentrations of 6-ACA. The class given is cell-based, Escherichia coli. How it is done:
E. coli was inoculated into media and grown in either aerobic (left and right bars) or anaerobic (middle bars) conditions. The cultures were grown for 48 hrs during the first trial and 30 hrs for a second trial under aerobic conditions (right bars).
(§1) E. coli was assayed for tolerance, metabolic activity and growth during exposure to various concentrations of 6-aminocaproate (6-ACA). Aerobically, cultures were able to grow media with up to 10% 6-ACA, while anaerobic cultures could grow in media with approximately 6% 6-ACA (FIG. 15). Because the pathway for producing 6-ACA could require anaerobic conditions, all other further testing was performed under anaerobic conditions. To assay tolerance, cultures were grown anaerobically to mid-log(0.3 OD) and early stationary phase (0.6 OD), the cells were spun down and resuspended in medium containing various concentrations of 6-ACA. The cultures were grown in capped microfuge tubes, grown overnight and the ODs of the cultures were assayed (FIG. 16). Under these conditions, cultures were able to grow (double at least 1 time) in up to 10% 6-ACA. The additional tolerance could have been from the additional glucose from resuspending the cultures in fresh M9-glucose medium or from limited oxygen that was present in the capped microfuge tube. […]

Data set [2] has as its system E. coli. Description: Tolerance of E. coli cells resuspended in medium with various concentrations of 6-ACA (OD after overnight growth). In kind it is cell-based, Escherichia coli. Conditions: cells grown anaerobically to mid-log (0.3 OD) and early stationary phase (0.6 OD), resuspended in fresh M9-glucose medium, capped microfuge tubes. How it is done:
Midlog (OD600=0.3, lower dashed line) or early stationary (OD600=0.6, upper dashed line) cells were spun down and resuspended in fresh M9-Glucose medium with various concentrations of 6-ACA. After overnight growth, cultures were measured for growth by measuring OD600.
as §1

Data set [3] has as its system E. coli. Description: Ethanol production (metabolic activity) of E. coli cultures exposed to 6-ACA. In kind it is cell-based, Escherichia coli. Conditions: resuspended cultures, overnight growth. How it is done:
Midlog or early stationary cells were spun down and resuspended in fresh M9-Glucose medium with various concentrations of 6-ACA. After overnight growth, cultures were measured for growth by measuring OD600 and metabolic activity assayed by ethanol production.
as §1

For data set [4], the system named is E. coli. In kind it is cell-based, Escherichia coli. On the procedure:
FIG. 18, panels A and B, show the growth in various concentrations of 6-ACA with and without glycine betaine. Panel A. OD600 measurements of medium inoculated with midlog cultures of E. coli with various concentrations of 6-ACA with (right bars) and without (left bars) 2 mM glycine betaine. Panel B. Photograph showing the growth of same cultures in the anaerobic bottles.
At high concentrations (>65 g/L) the osmolarity of 6-ACA is ˜0.5 M which may cause osmotic stress. To determine osmotic stress as the basis for 6-ACA growth inhibition, cultures were grown in various concentrations of 6-ACA with and without the osmoprotectant glycine betaine. […] Therefore much of the toxicity of 6-ACA is likely due to the osmotic stress. However, it should be noted that […] is similar to the amino acid lysine and could have a greater toxic effect in the cell cytoplasm vs. outside the cell.

The target in data set [5] is Lysine decarboxylase (EC 4.1.1.18) (Escherichia coli, UniProt P0A9H3). The settings on record: E. coli enzyme; cited from earlier work.
Chain of Lysine decarboxylase (EC 4.1.1.18) (P0A9H3 whole entry): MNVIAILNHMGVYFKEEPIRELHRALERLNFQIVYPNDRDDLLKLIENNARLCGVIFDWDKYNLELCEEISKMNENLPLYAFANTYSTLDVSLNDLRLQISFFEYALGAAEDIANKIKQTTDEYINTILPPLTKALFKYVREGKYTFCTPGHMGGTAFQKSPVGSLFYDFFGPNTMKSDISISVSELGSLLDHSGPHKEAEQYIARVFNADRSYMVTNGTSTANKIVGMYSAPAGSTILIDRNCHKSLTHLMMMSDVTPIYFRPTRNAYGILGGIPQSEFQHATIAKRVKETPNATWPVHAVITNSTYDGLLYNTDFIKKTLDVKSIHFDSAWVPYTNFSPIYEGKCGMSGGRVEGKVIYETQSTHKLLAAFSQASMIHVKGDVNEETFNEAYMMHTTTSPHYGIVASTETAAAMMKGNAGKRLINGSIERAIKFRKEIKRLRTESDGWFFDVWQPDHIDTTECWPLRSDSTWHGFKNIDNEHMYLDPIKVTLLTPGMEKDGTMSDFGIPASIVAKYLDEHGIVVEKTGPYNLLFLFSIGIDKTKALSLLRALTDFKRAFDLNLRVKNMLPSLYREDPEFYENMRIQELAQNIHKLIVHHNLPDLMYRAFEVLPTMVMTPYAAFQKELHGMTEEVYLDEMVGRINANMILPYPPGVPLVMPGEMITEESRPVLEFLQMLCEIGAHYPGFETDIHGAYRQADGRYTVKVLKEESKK
Data set [6] in a line: In vitro thiolase reactions with purified His-tagged thiolases, LC/MS analysis. The class given is biochemical. Conditions: for Condensation of succinyl-CoA and acetyl-CoA into β-ketoadipyl-CoA: 0.5 μM purified thiolase, succinyl-CoA:acetyl-CoA 2:1, 30° C., 30 minutes, LC/MS; for Activities in the oxoadipyl-CoA forming direction: as summarised in Example XXVI. On the procedure: Succinyl-CoA and acetyl-CoA were added to His-tagged, purified thiolases at a ratio of 2:1 (succinyl-CoA:acetyl-CoA). Reactions were analyzed by LC/MS and quantified by comparison to a standard for acetoacetyl-CoA or peak area determined for 3-oxoadipyl-CoA (β-ketoadipyl-CoA).
For example, the gene products encoded by pcaF in Pseudomonas strain B13 (Kaschabek et al., J. Bacteriol, 184(1): 207-15 (2002)), phaD in Pseudomonas putida U (Olivera et al., Proc Nall Acad Sci USA, 95(11), 6419-24 (1998)), paaE in Pseudomonas fluorescens ST (Di Gennaro et al., Arch Microbiol, 188(2), 117-25 (2007)), and paaJ from E. coli (Nogales et al., Microbiology, 153(Pt 2), 357-65 (2007)) catalyze the conversion of 3-oxoadipyl-CoA into succinyl-CoA and acetyl-CoA during the degradation of aromatic compounds such as phenylacetate or styrene.
The genes were expressed in E. coli and the proteins purified using Ni-NTA spin columns and quantified. To assay enzyme activity in vitro, a […] CoA:DTNB (Ellman's reagent or 5,5′-dithiobis-(2-nitrobenzoic acid)) mixture was prepared. The mixture consisted of 10 mM succinyl-CoA, 5 mM acetyl-CoA, 30 mM DTNB in 100 mM Tris buffer, pH 7.4. […] of the CoA:DTNB mixture was added to 0.5 μM purified thiolase enzyme in 100 mM Tris buffer, pH 7.8 in a final volume of 50 μL. The reaction was incubated at 30° C. for 30 minutes, then quenched with 2.5 μL 10% formic acid and samples frozen at −20° C. until ready for analysis by LC/MS. Because many thiolases can condense two acetyl-CoA molecules into acetoaceytl-CoA, production of acetoacetyl-CoA was examined. […] These were fadAx from Pseudomonas putida, thiA from Clostridium acetobutylicum and thiB also from Clostridium acetobutylicum. […] There was excellent specificity between the thiolases.

In the case of `NCCCCCC(=O)O` [6-ACA, 6-aminocaproic acid], in data set [1] (aerobic), the “6-ACA concentration in media in which cultures were able to grow” value was “up to 10%”. The “6-ACA concentration in media in which cultures could grow” value in data set [1] (anaerobic) was “approximately 6%”. Besides, in data set [2], the “6-ACA concentration in which cultures were able to grow (double at least 1 time)” value is on record as “up to 10%”. Moreover, in data set [3], the “Ethanol production (metabolic activity) in the presence of 6-ACA” value is “closely tracked with OD”. For the same molecule, in data set [4], the “6-ACA concentration in medium allowing anaerobic growth” value was 4-6%. Besides, the “Inhibition of lysine decarboxylase” value in data set [5] is given as “competitive inhibitors”.

For the molecule `NC(CCCCC(=O)O)C(=O)O` (stereo not drawn) [2-Aminopimelate], the “Inhibition of lysine decarboxylase” value in data set [5] is “competitive inhibitors”.

B1: paaJ: β-ketothiolase paaJ from Escherichia coli, His-tagged, purified (protein, UniProt P0C7L2 1-401, looked up)
3-oxoadipyl-CoA/3-oxo-5,6-dehy …: MREAFICDGIRTPIGRYGGALSSVRADDLAAIPLRELLVRNPRLDAECIDDVILGCANQAGEDNRNVARMATLLAGLPQSVSGTTINRLCGSGLDALGFAARAIKAGDGDLLIAGGVESMSRAPFVMGKAASAFSRQAEMFDTTIGWRFVNPLMAQQFGTDSMPETAENVAELLKISREDQDSFALRSQQRTAKAQSSGILAEEIVPVVLKNKKGVVTEIQHDEHLRPETTLEQLRGLKAPFRANGVITAGNASGVNDGAAALIIASEQMAAAQGLTPRARIVAMATAGVEPRLMGLGPVPATRRVLERAGLSIHDMDVIELNEAFAAQALGVLRELGLPDDAPHVNPNGGAIALGHPLGMSGARLALAASHELHRRNGRYALCTMCIGVGQGIAMILERV
modifications: His-tag
notes: β-ketothiolase paaJ from Escherichia coli, His-tagged, purified
For the molecule B1, in data set [6], the “Condensation of succinyl-CoA and acetyl-CoA into β-ketoadipyl-CoA” value (“Condensation” for short) is reported as “demonstrated the desired activity”; the “Activities in the oxoadipyl-CoA forming direction” value is “significant and selective activities”.

B2: pcaF from Pseudomonas putida KT2440: β-ketothiolase pcaF from Pseudomonas putida KT2440 (protein, UniProt Q51956 1-400, looked up)
Beta-ketoadipyl-CoA thiolase: MRDVFICDAIRTPIGRFGGALAGVRADDLAAVPLKALIEPNPAVQWDQVDEVFFGCANQAGEDNRNVARMALLLAGLPESIPGVTLNRLCASGMDAIGTAFRAIASGEMELAIAGGVESMSRAPFVMGKAESGYSRNMKLEDTTIGWRFINPLMKSQYGVDSMPETADNVADDYQVSRADQDAFALRSQQKAAAAQAAGFFAEEIVPVRIAHKKGETIVERDEHLRPETTLEALTKLKPVNGPDKTVTAGNASGVNDGAAALILASAEAVKKHGLTPRARVLGMASGGVAPRVMGIGPVPAVRKLTERLGVAVSDFDVIELNEAFASQGLAVLRELGVADDAPQVNPNGGAIALGHPLGMSGARLVLTALHQLEKSGGRKGLATMCVGVGQGLALAIERV
With B2, the “Condensation” value in data set [6] was “demonstrated the desired activity”.

B3: pcaF from Pseudomonas aeruginosa PAO1: β-ketothiolase pcaF from Pseudomonas aeruginosa PAO1 (protein, UniProt Q9I6R0 1-401, looked up)
Beta-ketoadipyl-CoA thiolase: MSREVFICDAVRTPIGRFGGSLSAVRADDLAAVPLKALVERNPGVDWSALDEVFLGCANQAGEDNRNVARMALLLAGLPESVPGVTLNRLCASGMDAIGTAFRAIACGEMELAIAGGVESMSRAPYVMGKADSAFGRGQKIEDTTIGWRFVNPLMKEQYGIDPMPQTADNVADDYRVSRADQDAFALRSQQRAGRAQEAGFFAEEIVPVTIRGRKGDTLVEHDEHPRPDTTLEALARLKPVNGPEKTVTAGNASGVNDGAAALVLASAEAVEKHGLTPRARVLGMASAGVAPRIMGIGPVPAVRKLLRRLDLAIDAFDVIELNEAFASQGLACLRELGVADDSEKVNPNGGAIALGHPLGMSGARLVLTALHQLEKSGGRRGLATMCVGVGQGLALAIERV
As to B3, in data set [6], the “Condensation” value is “demonstrated the desired activity”; the “Activities in the oxoadipyl-CoA forming direction” value is “significant and selective activities”.
